Earlier results on 40 molecules are cited in patent US20060018842A1, “Composition and method for delivery of phytochemicals” (priority 2004, published 2006).

“Also recorded” adds a separate entry of the source.

The test system of the first series is microorganisms named in the source.
Details: not given
`COc1cc(CNC(=O)CCCC/C=C/C(C)C)ccc1O` [Capesicin]: the Activity result was “Bacteria”.

Staying with this series, now noted: organisms against which activity was observed; General = general antimicrobial.
As to `C=CCSSC=CC[S+]([O-])CC=C` (mixture of isomers) [ajoene], the Activity entry is listed as “General”. In the case of `C=CCS[S+]([O-])CC=C` (stereo not drawn) [Allicin], the Activity entry is given as “Bacteria, Candida; also recorded: General”. For the molecule `CC1(C)C=Cc2c(cc3occ(-c4ccc(O)cc4)c(=O)c3c2O)O1` [Alpinumisoflavone], the Activity entry is “Schiatosome”. On to `COc1ccc2cc3[n+](cc2c1OC)CCc1cc2c(cc1-3)OCO2` [Berberine], for which the Activity result is listed as “Plasmodium; also recorded: Trypansomea, general; also recorded: Bacteria, protozoa; also recorded: Bacteria, Giardia duodenals,; also recorded: trypanosomes; also recorded: Platmodia”. Regarding `Cc1ccc(C(C)C)cc1O` [Carvacrol], the Activity entry is listed as “General”.

For the molecule `COc1cc2c(c(OC)c1OC)-c1ccc(OC)c(=O)cc1[C@@H](NC(C)=O)CC2` [Colchicines, reference compound], the Activity result is “General”. As for `C=CCc1ccc(O)c(OC)c1` [Eugonol], the Activity result is reported as “General”. On to `O=C(CO)[C@@H](O)[C@H](O)[C@H](O)CO` [Fructose], for which the Activity result is reported as “E. coli; also recorded: Bacteria”.

For the molecule `O=C(O)c1cc(O)c(O)c(O)c1` [Gallic acid], the Activity entry was “S. aureus”.

Turning to `CC(C)=CCc1cc([C@@H]2CC(=O)c3ccc(O)c(CC=C(C)C)c3O2)ccc1O` [Glabrol], the Activity result was “S. aureus, M. tuberculosis”. With `O=C1C=C(O)C(=O)c2ccccc21` [Lawsone], the Activity result is “M. tuberculosis”.

With `CC(C)=CCC1=C(O)C(C(=O)CC(C)C)=C(O)C(CC=C(C)C)(CC=C(C)C)C1=O` [Lupulone], the Activity entry was “General”. On to `COc1cc(CCN)cc(OC)c1OC` [Mascaline], for which the Activity result is reported as “General”.

For the molecule `CC1CCC(C(C)C)C(O)C1` (stereo not drawn) [Menthol, reference compound], the Activity entry was “General”. For `CC(Cc1ccc(O)c(O)c1)C(C)Cc1ccc(O)c(O)c1` (stereo not drawn) [Nordihydrogual-aretic acid], the Activity result was “Skin bacteria”. For `CC(C)=CCc1cc(O)c(O)c(CC=C(C)C)c1[C@H]1Oc2c(CC=C(C)C)c(O)cc(O)c2C(=O)[C@@H]1O` [Petalostemumol], the Activity result is “Bacteria, fungi”. Turning to `O=C(CCc1ccc(O)cc1)c1c(O)cc(O)cc1O` [Phloretin], the Activity result is given as “General”. `O=C(/C=C/C=C/c1ccc2c(c1)OCO2)N1CCCCC1` [Piperdine]: the Activity result is listed as “Fungi, Lactobacillus,; also recorded: Micrococcus, E. coli; also recorded: E. facecalis”. In the case of `C=C1C=CC(=O)O1` [Protoanemonia], the Activity result is given as “General”. As to `C=C[C@H]1CN2CC[C@H]1C[C@H]2[C@H](O)c1ccnc2ccc(OC)cc12` [Quiniae, reference compound], the Activity entry is “Plasmodium spp”. As to `COC(=O)[C@H]1[C@H]2C[C@@H]3c4[nH]c5cc(OC)ccc5c4CCN3C[C@H]2C[C@@H](OC(=O)c2cc(OC)c(OC)c(OC)c2)[C@@H]1OC` [Roserpine, reference compound], the Activity result is given as “General”. As for `C/C(=C\CC[C@H](C)[C@@H]1CC[C@]2(C)C3=CC[C@H]4C(C)(C)C(=O)CC[C@]4(C)[C@H]3CC[C@@]12C)C(=O)O` [Terebinthone], the Activity entry is “General”. Take `C=C1C(=O)[C@]23C[C@H]1C[C@@H](O)[C@H]2[C@@]1(CCCC(C)(C)[C@H]1C=O)COC3=O` [Trichorabdal A]: the Activity entry is recorded as “Helicobacter pylori”. As to `CC1=C(CO)C(=O)O[C@@H]([C@@H](C)[C@H]2CC[C@H]3[C@@H]4C[C@H]5O[C@]56[C@@H](O)C=CC(=O)[C@]6(C)[C@H]4CC[C@]23C)C1` [Withafarin A], the Activity result is reported as “Bacteria, fungi”. On to `COc1ccc2c(c1OC)C(=O)O[C@@H]2[C@H]1c2cc3c(cc2CCN1C)OCO3` [hydrastine], for which the Activity result is “Bacteria, Giardia duodenals,; also recorded: trypanosomes; also recorded: Platmodia”.

Regarding `O=C(O)c1ccc(O)cc1O` [β-Resorcyclic acid], the Activity result is “Bacteria and viruses”. Take Anthemic acid: the Activity entry is given as “M. tuberculosis, S. typhi-; also recorded: murium, S. aureus,; also recorded: holminths”. As to Asiatocoside, the Activity result is reported as “M. leprae”. Regarding Caffaio acids, the Activity entry is on record as “Viruses, holminths”. In the case of Catechin, the Activity result was “General; also recorded: Shigella; also recorded: Vibrio; also recorded: S. mutans; also recorded: Viruses”.

For the molecule Helanine, the Activity entry is reported as “General”.

Consider Hexemal, for which the Activity result was “General”.

Take Pebatin: the Activity entry is reported as “Bacteria”.

For a further series, the system named is oral carcinoma cell line (KB). The following applies: features of caspase-3-mediated apoptosis.
For `CCCCCCCC(=O)CCc1ccc(O)c(OC)c1` [[6]-paradol], the Cytotoxicity result is given as “dose-dependent cytotoxicity”.

The same series, now with this note: incubated for 48 h.
For the molecule `CCCCCCCC(=O)CCc1ccc(O)c(OC)c1` [[6]-paradol], the “Viable KB cells, % of untreated control” value is “less than 50%”.

A further series concerns mouse skin.
Details: not given
`CCCCCCCC(=O)CCc1ccc(O)c(OC)c1` [[6]-paradol]: the “Protection from tumor inducing agent” value is “protected mouse skin from a tumor inducing agent”.

The next series concerns human breast cancer xenografts. The following applies: mice.
For `COc1cc(/C=C/C(=O)CC(=O)/C=C/c2ccc(O)c(OC)c2)ccc1O` [curcumin], the “Growth and metastasis of xenografts” value was “reduce the growth and metastasis”.

For a further series, the system named is oral cancer cell line KB-1. The following applies: key protein for gap junction formation.
On to `CC(C)=CCC/C(C)=C/C=C/C(C)=C/C=C/C(C)=C/C=C/C=C(C)/C=C/C=C(C)/C=C/C=C(\C)CCC=C(C)C` [lycopene], for which the “Induction of connexin 43” value was “specifically induced”.

The series is the same for the next values; noted with them: physiological lycopene concentrations.
For the molecule `CC(C)=CCC/C(C)=C/C=C/C(C)=C/C=C/C(C)=C/C=C/C=C(C)/C=C/C=C(C)/C=C/C=C(\C)CCC=C(C)C` [lycopene], the “KB-1 cells, % of control cell numbers” value was “approximately 10%”.

The test system of another series is breast cancer cell line MCF7.
Details: not given
For `CC(C)=CCC/C(C)=C/C=C/C(C)=C/C=C/C(C)=C/C=C/C=C(C)/C=C/C=C(C)/C=C/C=C(\C)CCC=C(C)C` [lycopene], the IGF-1 stimulated proliferation result was “blocked IGF-1 stimulated proliferation”.

For a further series, the system named is oral cancer.
Details: not given
On to `O=C(/C=C/c1ccc(O)c(O)c1)O[C@@H]1C[C@](O)(C(=O)O)C[C@@H](O)[C@H]1O` [CGA, chlorogenic acid], for which the Apoptosis entry was “induced caspase-3-dependent apoptosis”.

For another series, the system named is transformed cells. The following applies: by activating apoptosis.
Take epigallocatechin-3-gallate [EGCG]: the Growth inhibition entry is given as “induce growth inhibition”.

Another series concerns normal cell.
Details: not given
For the molecule epigallocatechin-3-gallate [EGCG], the Normal cell growth entry is on record as “not affected”.

Another series concerns oral squamous carcinoma cells.
Details: not given
Regarding epigallocatechin-3-gallate [EGCG], the Apoptosis entry was “induce apoptosis”.

In a further series the test system is normal human epidermal keratinocytes.
Details: not given
In the case of epigallocatechin-3-gallate [EGCG], the Survival entry is given as “survive”.

Another series concerns oral squamous cell carcinoma (OSCC) cells. The following applies: oral tumor cells.
With `COc1ccc2c3c1O[C@H]1C(=O)C=C[C@H]4[C@@H](C2)N(C)CC[C@]314` [codeinone], the Selectivity of cytotoxicity entry is “selectively higher in oral tumor cells”.

Staying with this series, now noted: targets the mitochondria.
For the molecule `COc1ccc2c3c1O[C@H]1C(=O)C=C[C@H]4[C@@H](C2)N(C)CC[C@]314` [codeinone], the Apoptosis result was “caspase-3-dependent apoptosis”.
